Measured values reported in patent US11376235B2, “Inhibitor of inflammasome activation” (KRACIE HOLDINGS, LTD., priority 2016, dated 2022).

Key:
NLRP3 inflammasome [1] = assay: Inflammasome activation by ATP stimulation in PMA-differentiated, LPS-treated THP1-Null cells (Test 1); format: cell-based, human; conditions: ATP 5 mM stimulation, arctigenin at concentrations of 10 μM and higher, 1 h pretreatment, vs Control without arctigenin, Dunnett's test
Protocol: (§1) THP1-Null cells (Invivogen) or THP-1 cells (JCRB Cell Bank), which are NLRP3 inflammasome reporter cell lines derived from human monocytic cells, were cultured in a RPMI medium containing 10% FBS and 4.5% glucose (hereinafter referred to as a THP1 culture medium, SIGMA). The cells were treated with 500 nM PMA (SIGMA) for 3 hours to differentiate the cells into macrophages, and the cells were washed with PBS twice and then used for the following experiment.
(§2) The THP1-Null cells or the THP-1 cells after the induction of differentiation were suspended in the THP1 culture medium at 1.0×10^6 cells/mL and seeded in a 96-well microplate at 180 μL per well (1.8×10^5 cells/well). […] The IL-1β concentrations of the culture supernatants were measured using IL-1β reporter cell line HEKBlue (trademark) IL-18/IL-1β cells (Invivogen) or the ELISA method. The caspase-1 concentrations of the culture supernatants were also measured by the ELISA method.
(§3) HEK Blue (trademark) IL-18/IL-1β cells were used for measuring the IL-1β concentrations of the medium supernatants collected after the ATP treatment. […] The absorbance of each well at 655 nm was measured using a microplate reader, and the IL-1β concentration was measured. […]
(§4) Caspase-1 was measured following the TDS of Quantikine (registered trademark) ELISA Human Caspase-1/ICE (R&D systems (trademark)). […]

NLRP3 inflammasome [2] = assay: Inflammasome activation by palmitic acid stimulation in PMA-differentiated, LPS-treated THP1-Null cells (Test 2); format: cell-based, human; conditions: palmitic acid 500 μM stimulation, 12 h, arctigenin 500 nM pretreatment, vs Control, Student's t-test, ELISA
Protocol: as §1, §2, §3, §4

NLRP3 inflammasome [3] = assay: Inflammasome activation by MSU stimulation in PMA-differentiated, LPS-treated THP1-Null cells (Test 3); format: cell-based, human; conditions: MSU 100 μg/mL stimulation, 3 h, vs Control, ELISA
Protocol: as §1, §2, §3, §4

AIM2 inflammasome = assay: Inflammasome activation by Poly(dA:dT) stimulation in PMA-differentiated, LPS-treated THP-1 cells (Test 4); format: cell-based, human; conditions: Poly(dA:dT)/LyoVec 5 μg/mL stimulation, 8 h, vs Control, Student's t-test, ELISA
Protocol: as §1, §2, §3, §4

[4] = stated as a fact, no test described; cited from earlier work

For `COc1cc(C[C@H]2C(=O)OC[C@@H]2Cc2ccc(OC)c(OC)c2)ccc1O` [arctigenin], the caspase-1 amount (NLRP3 inflammasome [1]; ELISA, FIG. 2) was “decreased with significance”, the “released IL-1β amount” value (NLRP3 inflammasome [1]; HEK Blue IL-18/IL-1β reporter cells, FIG. 1) was “decreased with significance” and the “released IL-1β amount” value (NLRP3 inflammasome [2]; FIG. 3) was “decreased with significance”. For the same compound, the caspase-1 amount (NLRP3 inflammasome [2]; FIG. 4) was “decreased with significance”, the “released IL-1β amount” value (NLRP3 inflammasome [3]; arctigenin at concentrations of 10 μM and higher, Dunnett's test, FIG. 5) was “decreased with significance” and the caspase-1 amount (NLRP3 inflammasome [3]; arctigenin pretreatment, FIG. 6) was “decreased concentration-dependently”. The caspase-1 amount (AIM2 inflammasome; arctigenin 250 nM pretreatment, FIG. 8) was “decreased with significance”, the “released IL-1β amount” value (AIM2 inflammasome; arctigenin 500 nM pretreatment, FIG. 7) was “decreased with significance” and the solubility in water [4] was “insoluble in water”.
